Holding throughout (format): cell-based
The test system of assay [1] is Phytophthora infestans. The conditions noted are these: active compound alone, 7 days after inoculation.
Assay [2] deals with Botrytis cinerea. The assay can be described thus: Activity against grey mold caused by Botrytis cinerea in the microtiterplate test (Botrici).
In assay [3] the test system is Pyricularia oryzae. The conditions noted are these: active compound alone, 7 days after inoculation.
The subject of assay [4] is Septoria tritici. As to the kind of experiment: Activity against leaf blotch on wheat caused by Septoria tritici, microtiter test (Septtr). The conditions noted are these: active compound alone, 7 days after inoculation.
Where [5] appears, read: Botrytis cinerea, 168 h, active compound alone, 4 ppm, 7 days after inoculation, read-out: Observed efficacy.
Setting [6] is: Botrytis cinerea, 168 h, active compound alone, 1 ppm, 7 days after inoculation, read-out: Observed efficacy.

Among the data in patent US20100273649A1, “Fungicidal Mixtures III” (BASF SE, priority 2007, published 2010) are Observed efficacy and inhibition of growth values, retold here.

Read-outs that look alike come from different tables or passages of the source.

In assay [1] (0.25 ppm), `N#Cc1c(Cl)c(Cl)c(Cl)c(C#N)c1Cl` [Chlorothalonil, 2,4,5,6-tetrachloroisophthalonitrile] displayed an Observed efficacy of 20%.

Take `Cc1ccc(C(C)NC(=O)[C@@H](NC(=O)OC(C)C)C(C)C)cc1` (stereo partly drawn) [Iprovalicarb, isopropyl [(1S)-2-methyl-1-(1-p-tolylethylcarbamoyl)propyl]carbamate]: the inhibition of growth at 1 ppm in assay [2] (Botrytis cinerea, 168 h, read-out: Observed efficacy) is 2%.

For the molecule `C=C(C(=O)OCc1cccc(C(F)(F)F)c1)C(O)c1cccnc1` (stereo not shown) [I.1, (3-trifluoromethylphenyl)methyl 2-[hydroxyl(pyridine-3-yl)methyl]acrylate], in assay [2] (setting [5]), the inhibition of growth at 4 ppm worked out at 5%. Besides, the Observed efficacy in assay [3] (0.016 ppm) is reported as 5%; in assay [4] (0.016 ppm) it was 9%; in assay [4] (16 ppm), 47%; in assay [1] (1 ppm), 1%; in assay [1] (4 ppm) it was 0%; in assay [1] (16 ppm), 42%.

On to `COC(=O)N(OC)c1ccccc1COc1ccn(-c2ccc(Cl)cc2)n1` [Pyraclostrobin, pyraclostrobin], for which the Observed efficacy is 38% in assay [3] (0.001 ppm) and 21% in assay [4] (0.001 ppm).

Regarding `O=C(Nc1ccccc1-c1ccc(Cl)cc1)c1cccnc1Cl` [Boscalid, 2-chloro-N-(4′-chlorobiphenyl-2-yl)nicotinamide], in assay [2] (setting [5]), the inhibition of growth at 4 ppm amounted to 45%.

Consider `O=C(OCc1cccc(C(F)(F)F)c1)C(=Cc1ccccc1)C(O)c1cccnc1` (stereo not shown) [I.3, (3-trifluoromethylphenyl)methyl 2-[hydroxyl(pyridine-3-yl)methyl]-3-phenylacrylate], for which, in assay [2] (setting [6]), the inhibition of growth at 1 ppm worked out at 9%. Further, the inhibition of growth at 4 ppm in assay [2] (setting [5]) came to 16%. In addition, the Observed efficacy was 2% in assay [3] (0.25 ppm), 51% in assay [4] (0.063 ppm), 8% in assay [1] (1 ppm) and 10% in assay [1] (4 ppm).

On to `Fc1ccc([C@]2(Cn3cncn3)O[C@H]2c2ccccc2Cl)cc1` (racemic) [Epoxiconazole, (2RS,3SR)-1-[3-(2-chlorophenyl)-2,3-epoxy-2-(4-fluorophenyl)propyl]-1H-1,2,4-triazole], for which the inhibition of growth at 0.063 ppm in assay [2] (Botrytis cinerea, 168 h, active compound alone, 0.063 ppm, 7 days after inoculation, read-out: Observed efficacy) stood at 4%. Also, the Observed efficacy in assay [4] (0.016 ppm) was determined as 14%; in assay [1] (0.25 ppm), 12%.

In the case of `O=C1C2CC=CCC2C(=O)N1SC(Cl)(Cl)Cl` (stereo not shown) [Captan, 2-trichloromethylsulfanyl-3a,4,7,7a-tetrahydroisoindole-1,3-dione], the inhibition of growth at 1 ppm in assay [2] (setting [6]) worked out at 64%. The Observed efficacy in assay [1] (1 ppm) was determined as 26%.

On to `Cc1ccc(-c2c(Cl)nc(C#N)n2S(=O)(=O)N(C)C)cc1` [Cyazofamid, 4-chloro-2-cyano-N,N-dimethyl-5-(4-methylphenyl)-1H-imidazole-1-sulfonamide], for which, in assay [2] (Botrytis cinerea, 168 h, active compound alone, 0.25 ppm, 7 days after inoculation, read-out: Observed efficacy), the inhibition of growth at 0.25 ppm came to 0%.

Molecule `Cc1cc(C)nc(Nc2ccccc2)n1` [Pyrimethanil, 4,6-di-methylpyrimidin-2-ylphenylamine] gave an Observed efficacy in assay [4] (16 ppm) of 50%.

As for “zinc propylenebis(dithiocarbamate) polymer [Propineb]”, the Observed efficacy in assay [2] (active compound alone, 4 ppm, 7 days after inoculation) turned out to be 21%.

As to `COC=C(C(=O)OC)c1ccccc1COc1cccc(C(F)(F)F)n1` [Picoxystrobin, methyl 3-methoxy-2-[2-(6-trifluoromethylpyridin-2-yloxymethyl)phenyl]acrylate], the Observed efficacy came out at 21% in assay [3] (0.016 ppm) and 66% in assay [1] (0.25 ppm).
